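1) Cells in 96-well plates. 2) Compound, 48 h, 5 concentrations. 3) Linear interpolation between surrounding doses. 4) Unreached endpoint = highest concentration. Abbreviation: GI50, concentration required for 50% inhibition of growth. At the TGI there is no net growth.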
Key:
Test in all cases: NCI anticancer screen, dose series, 48 h
NCI-H460 lung = system: NCI-H460 lung
SK-MEL-2 melanoma = system: SK-MEL-2 melanoma
A498 renal = system: A498 renal
M14 melanoma = system: M14 melanoma
CAKI-1 renal = system: CAKI-1 renal
BT-549 breast = system: BT-549 breast
CCRF-CEM leukemia = system: CCRF-CEM leukemia
SW-620 colon = system: SW-620 colon
ACHN renal = system: ACHN renal
786-0 renal = system: 786-0 renal
KM12 colon = system: KM12 colon
RXF 393 renal = system: RXF 393 renal
NCI-H226 lung = system: NCI-H226 lung
LOX IMVI melanoma = system: LOX IMVI melanoma
DU-145 prostate = system: DU-145 prostate
MDA-MB-231 breast = system: MDA-MB-231 breast
HT29 colon = system: HT29 colon
IGROV1 ovarian = system: IGROV1 ovarian
T-47D breast = system: T-47D breast
NCI-H522 lung = system: NCI-H522 lung
HL-60(TB) leukemia = system: HL-60(TB) leukemia
NCI/ADR-RES ovarian = system: NCI/ADR-RES ovarian
HCC-2998 colon = system: HCC-2998 colon
HCT-116 colon = system: HCT-116 colon
SR leukemia = system: SR leukemia
HOP-62 NSCLC = system: HOP-62 NSCLC
SF-268 CNS = system: SF-268 CNS
SK-MEL-28 melanoma = system: SK-MEL-28 melanoma
SN12C renal = system: SN12C renal
SK-MEL-5 melanoma = system: SK-MEL-5 melanoma
OVCAR-4 ovarian = system: OVCAR-4 ovarian
K-562 leukemia = system: K-562 leukemia
HOP-92 NSCLC = system: HOP-92 NSCLC
UACC-62 melanoma = system: UACC-62 melanoma
PC-3 prostate = system: PC-3 prostate
RPMI-8226 leukemia = system: RPMI-8226 leukemia
SK-OV-3 ovarian = system: SK-OV-3 ovarian
SNB-75 CNS = system: SNB-75 CNS
COLO 205 colon = system: COLO 205 colon
OVCAR-5 ovarian = system: OVCAR-5 ovarian
SF-295 CNS = system: SF-295 CNS
OVCAR-8 ovarian = system: OVCAR-8 ovarian
MOLT-4 leukemia = system: MOLT-4 leukemia
U251 CNS = system: U251 CNS
A549 NSCLC = system: A549 NSCLC
NCI-H23 lung = system: NCI-H23 lung
HCT-15 colon = system: HCT-15 colon
MALME-3M melanoma = system: MALME-3M melanoma
SNB-19 CNS = system: SNB-19 CNS
MCF7 breast = system: MCF7 breast
TK-10 renal = system: TK-10 renal
HS 578T breast = system: HS 578T breast
UO-31 renal = system: UO-31 renal
MDA-MB-435 = system: MDA-MB-435
SF-539 CNS = system: SF-539 CNS
UACC-257 melanoma = system: UACC-257 melanoma

Structure (SMILES): Nc1ccc(-c2nnc(SCc3ccc(O)c4ncccc34)o2)cc1
- GI50 (NCI-H460 lung): 0.0367 µM
- GI50 (SK-MEL-2 melanoma): 0.0792 µM
- TGI (SK-MEL-2 melanoma): 2.73 µM
- GI50 (A498 renal): 0.317 µM
- TGI (A498 renal): 3.3 µM
- GI50 (M14 melanoma): 0.0604 µM
- TGI (M14 melanoma): 2.81 µM
- GI50 (CAKI-1 renal): 0.179 µM
- TGI (CAKI-1 renal): > 68.1 µM
- GI50 (BT-549 breast): 0.0558 µM
- TGI (BT-549 breast): > 100 µM
- GI50 (CCRF-CEM leukemia): 0.0617 µM
- TGI (CCRF-CEM leukemia): > 100 µM
- GI50 (SW-620 colon): 0.0618 µM
- TGI (SW-620 colon): > 100 µM
- GI50 (ACHN renal): 0.0726 µM
- TGI (ACHN renal): > 31.9 µM
- GI50 (786-0 renal): 0.224 µM
- TGI (786-0 renal): 16.7 µM
- GI50 (KM12 colon): 0.128 µM
- TGI (KM12 colon): > 100 µM
- GI50 (RXF 393 renal): 0.0906 µM
- TGI (RXF 393 renal): > 85.9 µM
- GI50 (NCI-H226 lung): 0.441 µM
- TGI (NCI-H226 lung): > 100 µM
- GI50 (LOX IMVI melanoma): 0.0305 µM
- TGI (LOX IMVI melanoma): > 33.7 µM
- GI50 (DU-145 prostate): 0.055 µM
- TGI (DU-145 prostate): > 38.5 µM
- GI50 (MDA-MB-231 breast): 0.154 µM
- TGI (MDA-MB-231 breast): 22.6 µM
- GI50 (HT29 colon): 0.485 µM
- TGI (HT29 colon): > 100 µM
- GI50 (IGROV1 ovarian): 0.0846 µM
- TGI (IGROV1 ovarian): > 41.9 µM
- GI50 (T-47D breast): 0.085 µM
- TGI (T-47D breast): > 100 µM
- GI50 (NCI-H522 lung): 0.044 µM
- TGI (NCI-H522 lung): > 50.7 µM
- GI50 (HL-60(TB) leukemia): 0.0987 µM
- TGI (HL-60(TB) leukemia): 1.22 µM
- GI50 (NCI/ADR-RES ovarian): 0.0439 µM
- TGI (NCI/ADR-RES ovarian): > 100 µM
- GI50 (HCC-2998 colon): 0.177 µM
- TGI (HCC-2998 colon): > 100 µM
- GI50 (HCT-116 colon): 0.0379 µM
- TGI (HCT-116 colon): 28.8 µM
- GI50 (SR leukemia): 0.0891 µM
- TGI (SR leukemia): > 100 µM
- GI50 (HOP-62 NSCLC): 0.0815 µM
- TGI (HOP-62 NSCLC): 7.62 µM
- GI50 (SF-268 CNS): 0.0641 µM
- TGI (SF-268 CNS): > 75.3 µM
- GI50 (SK-MEL-28 melanoma): 0.139 µM
- TGI (SK-MEL-28 melanoma): > 100 µM
- GI50 (SN12C renal): 0.0392 µM
- TGI (SN12C renal): > 100 µM
- GI50 (SK-MEL-5 melanoma): 0.0491 µM
- GI50 (OVCAR-4 ovarian): 0.259 µM
- TGI (OVCAR-4 ovarian): > 100 µM
- GI50 (K-562 leukemia): 0.0442 µM
- TGI (K-562 leukemia): > 100 µM
- GI50 (HOP-92 NSCLC): 0.0238 µM
- TGI (HOP-92 NSCLC): 0.0724 µM
- GI50 (UACC-62 melanoma): 0.249 µM
- TGI (UACC-62 melanoma): 2.28 µM
- GI50 (PC-3 prostate): 0.0502 µM
- TGI (PC-3 prostate): > 100 µM
- GI50 (RPMI-8226 leukemia): 0.0461 µM
- TGI (RPMI-8226 leukemia): > 100 µM
- GI50 (SK-OV-3 ovarian): 0.0807 µM
- TGI (SK-OV-3 ovarian): 0.577 µM
- GI50 (SNB-75 CNS): 0.112 µM
- TGI (SNB-75 CNS): 12.9 µM
- GI50 (COLO 205 colon): 0.442 µM
- TGI (COLO 205 colon): 2.45 µM
- GI50 (OVCAR-5 ovarian): 0.498 µM
- TGI (OVCAR-5 ovarian): > 100 µM
- GI50 (SF-295 CNS): 0.0412 µM
- TGI (SF-295 CNS): > 39 µM
- GI50 (OVCAR-8 ovarian): 0.0418 µM
- TGI (OVCAR-8 ovarian): > 100 µM
- GI50 (MOLT-4 leukemia): 0.124 µM
- TGI (MOLT-4 leukemia): > 100 µM
- GI50 (U251 CNS): 0.0354 µM
- TGI (U251 CNS): 11.8 µM
- GI50 (A549 NSCLC): 0.0417 µM
- TGI (A549 NSCLC): > 100 µM
- GI50 (NCI-H23 lung): 0.0492 µM
- TGI (NCI-H23 lung): > 26.9 µM
- GI50 (HCT-15 colon): 0.0382 µM
- TGI (HCT-15 colon): > 100 µM
- GI50 (MALME-3M melanoma): 0.0927 µM
- TGI (MALME-3M melanoma): 31.9 µM
- GI50 (SNB-19 CNS): 0.0438 µM
- TGI (SNB-19 CNS): > 51.8 µM
- GI50 (MCF7 breast): 0.0387 µM
- TGI (MCF7 breast): > 100 µM
- GI50 (TK-10 renal): 0.132 µM
- GI50 (HS 578T breast): 0.0509 µM
- TGI (HS 578T breast): > 100 µM
- GI50 (UO-31 renal): 0.0619 µM
- TGI (UO-31 renal): 1.91 µM
- GI50 (MDA-MB-435): 0.0454 µM
- TGI (MDA-MB-435): > 100 µM
- GI50 (SF-539 CNS): 0.0642 µM
- TGI (SF-539 CNS): 8.75 µM
- GI50 (UACC-257 melanoma): 0.207 µM
- TGI (UACC-257 melanoma): 0.91 µM
